# Target: T1, hM3 receptor (Homo sapiens, UniProt P20309)
# T1 construct: expressed in transfected cells
# Test: Blockade of agonist-mediated calcium release via FLIPR
# Format: cell-based
# Details: CHO cells stably expressing the hM3 receptor; this or a similar assay
# Source text: Muscarinic receptor subtypes (M1, M3 and M5 receptors), which couple to Gq proteins, activate the phospholipase C (PLC) pathway upon agonist binding to the receptor. As a result, activated PLC hydrolyzes phosphatyl inositol diphosphate (PIP2) to diacylglycerol (DAG) and […] (IP3), which in turn generates calcium release from intracellular stores, i.e., endoplasmic and sarcoplasmic reticulum. The FLIPR (Molecular Devices, Sunnyvale, Calif.) assay capitalizes on this increase in intracellular calcium by using a calcium sensitive dye (Fluo-4AM, Molecular Probes, Eugene, Oreg.) that fluoresces when free calcium binds. This fluorescence event is measured in real time by the FLIPR, which detects the change in fluorescence from a monolayer of cells cloned with human M1 and M3, and chimpanzee M5 receptors. Antagonist potency can be determined by the ability of antagonists to inhibit agonist-mediated increases in intracellular calcium. […]
# To determine antagonist potency, the dose-dependent stimulation of intracellular Ca^2+ release for oxotremorine is first determined so that antagonist potency can later be measured against oxotremorine stimulation at an EC90 concentration. […]
# The change of fluorescence is expressed as maximum fluorescence minus baseline fluorescence for each well. […]
# T1 sequence (P20309 whole entry): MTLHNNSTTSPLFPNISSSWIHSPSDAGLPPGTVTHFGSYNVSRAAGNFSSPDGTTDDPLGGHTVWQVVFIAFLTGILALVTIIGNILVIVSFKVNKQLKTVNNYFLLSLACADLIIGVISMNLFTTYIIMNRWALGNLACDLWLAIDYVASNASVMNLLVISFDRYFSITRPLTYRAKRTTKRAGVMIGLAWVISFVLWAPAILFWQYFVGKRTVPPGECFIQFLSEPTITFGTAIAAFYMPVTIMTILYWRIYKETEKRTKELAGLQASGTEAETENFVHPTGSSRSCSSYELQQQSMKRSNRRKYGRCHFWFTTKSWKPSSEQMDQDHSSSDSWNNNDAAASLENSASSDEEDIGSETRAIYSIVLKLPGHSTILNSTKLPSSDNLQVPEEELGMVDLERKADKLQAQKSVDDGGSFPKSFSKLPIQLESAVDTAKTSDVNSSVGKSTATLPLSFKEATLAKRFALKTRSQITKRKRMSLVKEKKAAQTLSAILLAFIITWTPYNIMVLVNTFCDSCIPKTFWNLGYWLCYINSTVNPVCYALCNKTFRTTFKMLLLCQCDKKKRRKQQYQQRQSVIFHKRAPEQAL
smiles,measurement,value
"CN(CCN1CCC(OC(=O)Nc2ccccc2-c2ccccc2)CC1)C(=O)c1ccc(CN2CCC(C(N)=O)CC2)cc1 [compound of formula I, biphenyl-2-ylcarbamic acid 1-(2-{[4-(4-carbamoylpiperidin-1-ylmethyl)benzoyl]methylamino}ethyl)piperidin-4-yl ester]",Ki,< 5 nM

# Source: patent publication US11390603B2, “Crystalline forms of a biphenyl compound” (THERAVANCE BIOPHARMA R&D IP, LLC, priority 2005, dated 2022)
